Key:
Format in all cases: cell-based
Molt-4 = test: MTT assay, Molt-4 cells; conditions: Homo sapiens, MOLT-4, 24 h, read-out: Viability rate
Method: (§1) K562, Jurkat, Molt-4, and Nalm-6 cell lines were cultured in RPMI-1640 medium (ECM2001, Euroclone), Reh cell line was cultured in DMEM medium (LM-D1111-Biosera) Hek293T cell line was cultured in IMDM medium (AL070A - HiMedia) supplemented with 10% heat-inactivated fetal bovine serum (F7524-Merck & Co., USA,) penicillin and streptomycin (P4333-Sigma Aldrich). K562, Jurkat and Molt-4 cell lines were seeded as 4x10^5/ml, Reh and Nalm-6 cell lines were seeded 5x10^5/ml, Hek293T cell line was seed as 2x10^5/ml. All cells were incubated at 5% CO2 and 37 °C. All cell lines were kindly provided by Dr. M. Sayitoglu and Dr. Ö. Hatirnaz-Ng from Acibadem University.
(§2) MTT assay is a 3-day test. On the first day, cell count was performed in Bio Rad TC-20 device with the help of trypan blue, each cell line was prepared by diluting to the specified concentrations and seeded in a 96-well plate as 100μL to each well and incubated for 1 day.
(§3) Each compound was solved in DMSO, their stock solutions (33.3, 10, 5, 1 mM, and 300 μM) were prepared by diluting with the same solvent and they were stored under −20°C when they were not used.
(§4) On the second day, stock solutions were subsequently diluted to various concentrations (0.3–200 μM) with related medium prior to experiments. Specified concentrations of the compounds were seeded in a 96-well plate as 100μL to each well and incubated for 24 h.
(§5) After incubation (on the third day), to precipitate leukemia cells, the cell plate was centrifuged at 1500 rpm for 5 min. Then, 100 μL of supernatant was removed from each well carefully and 10 μl of MTT solution (5 mg/mL) was added to each well and incubated at 37 °C for 4 h. The 50 μl of supernatant was discarded from each well and 100 μl of DMSO was added to dissolve the formazan. Plates were shaken for 45 min to dissolve the dye. Then the optical density of each well was measured by using Thermo VarioSkan Flush Multimode Reader Quantum ST5-1100 at 570 nm wavelength.
(§6) Subsequently, viability rate of the cells at each concentration, as percentage, was determined by following formula (1):
(§7) Viability rate (%)=100-[(OD(control)-OD(sample))/OD(control)×100].OD=Optical Density
(§8) The IC50 values were calculated by using GraphPad Prism. All the data presented as the mean of 6 replicates. Results were analyzed and illustrated with Graph Pad Prism (version 5; GraphPad Software, San Diego, CA, USA). Statistical analysis was performed using dose-response inhibition, log(inhibitor) vs response-variable slope, least squares (ordinary) fit.
(§9) To evaluate in-vitro anti-cancer activity of the newly synthesized compounds, they were tested by using the MTT assay in the BCR-ABL positive leukemic cell line (K562), BCR-ABL negative leukemic cell lines (Nalm-6, Molt-4, Reh and Jurkat), and non-leukemic human embryonic kidney tissue (Hek293T) cell line. […] The viability rate of each concentration was calculated by the formula stated in material and methods, the viability rate results for each cell were presented in Table S2 and Figure S44.

Jurkat = test: MTT assay, Jurkat cells; conditions: Homo sapiens, 24 h, read-out: Viability rate
Method: as §1, §2, §3, §4, §5, §6, §7, §8, §9

K562 = test: MTT assay, K562 cells; conditions: Homo sapiens, 24 h, MTT, read-out: Viability rate
[1] = MTT assay, Hek293T non-leukemic control cells; conditions: human, read-out: Viability rate
Method: as §1, §2, §3, §4, §5, §6, §7, §8, §9

Nalm-6 = test: MTT assay, Nalm-6 cells; conditions: Homo sapiens, 24 h, MTT, read-out: Viability rate
Method: After incubation (on the third day), to precipitate leukemia cells, the cell plate was centrifuged at 1500 rpm for 5 min. […] The 50 μl of supernatant was discarded from each well and 100 μl of DMSO was added to dissolve the formazan. Plates were shaken for 45 min to dissolve the dye. Then the optical density of each well was measured by using Thermo VarioSkan Flush Multimode Reader Quantum ST5-1100 at 570 nm wavelength.
The IC50 values were calculated by using GraphPad Prism. All the data presented as the mean of 6 replicates. […] Statistical analysis was performed using dose-response inhibition, log(inhibitor) vs response-variable slope, least squares (ordinary) fit.

Reh = test: MTT assay, Reh cells; conditions: Homo sapiens, 24 h, read-out: Viability rate
Method: as §1, §2, §3, §4, §5, §6, §7, §8, §9

## Cc1ccc(NC(=O)c2ccc(CN3CCN(C)CC3)cc2)cc1Nc1nccc(-c2cccnc2)n1 [imatinib, reference compound]
Molt-4; Molt-4, 0.3 μM
  viability at 0.3 µM: 75.6 ± 0.18%
Molt-4; Molt-4, 0.5 μM
  viability at 0.5 µM: 74.9 ± 0.18%
Molt-4; Molt-4, 1 μM
  viability at 1 µM: 75.1 ± 0.19%
Molt-4; Molt-4, 3 μM
  viability at 3 µM: 73.8 ± 0.17%
Molt-4; Molt-4, 5 μM
  viability at 5 µM: 72.7 ± 0.25%
Molt-4; Molt-4, 10 μM
  viability at 10 µM: 70.7 ± 0.21%
Molt-4; Molt-4, 15 μM
  viability at 15 µM: 70.2 ± 0.1%
Molt-4; Molt-4, 20 μM
  viability at 20 µM: 63.4 ± 0.1%
Molt-4; Molt-4, 30 μM
  viability at 30 µM: 63.3 ± 0.06%
Molt-4; Molt-4, 50 μM
  viability at 50 µM: 55.5 ± 0.05%
Molt-4; Molt-4, 70 μM
  viability at 70 µM: 52.1 ± 0.1%
Molt-4; Molt-4, 100 μM
  viability at 100 µM: 41.2 ± 0.06%
Molt-4; Molt-4, 150 μM
  viability at 150 µM: 29.8 ± 0.04%
Molt-4; Molt-4, 200 μM
  viability at 200 µM: 20.3 ± 0.02%
Jurkat; 0.3 μM
  viability at 0.3 µM: 68.4 ± 0.12%
Jurkat; 0.5 μM
  viability at 0.5 µM: 63.9 ± 0.03%
Jurkat; 1 μM
  viability at 1 µM: 61.5 ± 0.07%
Jurkat; 3 μM
  viability at 3 µM: 61.3 ± 0.05%
Jurkat; 5 μM
  viability at 5 µM: 60.7 ± 0.08%
Jurkat; 10 μM
  viability at 10 µM: 60.6 ± 0.14%
Jurkat; 15 μM
  viability at 15 µM: 57.9 ± 0.05%
Jurkat; 20 μM
  viability at 20 µM: 46.8 ± 0.05%
Jurkat; 30 μM
  viability at 30 µM: 34.5 ± 0.04%
Jurkat; 50 μM
  viability at 50 µM: 26.2 ± 0.05%
Jurkat; 70 μM
  viability at 70 µM: 17.8 ± 0.02%
Jurkat; 100 μM
  viability at 100 µM: 17.5 ± 0.01%
Jurkat; 150 μM
  viability at 150 µM: 17.3 ± 0.01%
Jurkat; 200 μM
  viability at 200 µM: 16.6%
K562; K562, 0.3 μM
  viability at 0.3 µM: 98 ± 0.03%
K562; K562, 0.5 μM
  viability at 0.5 µM: 97.4 ± 0.06%
K562; K562, 1 μM
  viability at 1 µM: 95.4 ± 0.07%
K562; K562, 3 μM
  viability at 3 µM: 95.3 ± 0.05%
K562; K562, 5 μM
  viability at 5 µM: 95.4 ± 0.09%
K562; K562, 10 μM
  viability at 10 µM: 94.8 ± 0.09%
K562; K562, 15 μM
  viability at 15 µM: 88.5 ± 0.1%
K562; K562, 20 μM
  viability at 20 µM: 87 ± 0.04%
K562; K562, 30 μM
  viability at 30 µM: 72.8 ± 0.06%
K562; K562, 50 μM
  viability at 50 µM: 60.8 ± 0.1%
K562; K562, 70 μM
  viability at 70 µM: 60 ± 0.07%
K562; K562, 100 μM
  viability at 100 µM: 51.3 ± 0.05%
K562; K562, 150 μM
  viability at 150 µM: 35.1 ± 0.01%
K562; K562, 200 μM
  viability at 200 µM: 29.7%
[1]; Hek293T cells (non-leukemic control cell line), 0.3 μM
  viability at 24 h, 0.3 µM: 83.4 ± 0.02%
[1]; Hek293T cells (non-leukemic control cell line), 0.5 μM
  viability at 24 h, 0.5 µM: 78.6 ± 0.04%
[1]; Hek293T cells (non-leukemic control cell line), 3 μM
  viability at 24 h, 3 µM: 73.1 ± 0.03%
[1]; Hek293T cells (non-leukemic control cell line), 5 μM
  viability at 24 h, 5 µM: 71.5 ± 0.02%
[1]; Hek293T cells (non-leukemic control cell line), 10 μM
  viability at 24 h, 10 µM: 67.9 ± 0.01%
[1]; Hek293T cells (non-leukemic control cell line), 15 μM
  viability at 24 h, 15 µM: 59.6 ± 0.01%
[1]; Hek293T cells (non-leukemic control cell line), 20 μM
  viability at 24 h, 20 µM: 55.7 ± 0.03%
[1]; Hek293T cells (non-leukemic control cell line), 30 μM
  viability at 24 h, 30 µM: 53.5 ± 0.01%
[1]; Hek293T cells (non-leukemic control cell line), 50 μM
  viability at 24 h, 50 µM: 48.5 ± 0.05%
[1]; Hek293T cells (non-leukemic control cell line), 70 μM
  viability at 24 h, 70 µM: 42.9 ± 0.03%
[1]; Hek293T cells (non-leukemic control cell line), 100 μM
  viability at 24 h, 100 µM: 42.7 ± 0.03%
[1]; Hek293T cells (non-leukemic control cell line), 150 μM
  viability at 24 h, 150 µM: 42.5 ± 0.02%
[1]; Hek293T cells (non-leukemic control cell line), 200 μM
  viability at 24 h, 200 µM: 42.1 ± 0.01%
[1]; Hek293T cells, 1 μM
  viability at 24 h, 1 µM: 77.7 ± 0.03%
Nalm-6; Nalm-6, 0.3 μM
  viability at 0.3 µM: 91 ± 0.08%
Nalm-6; Nalm-6, 0.5 μM
  viability at 0.5 µM: 90.7 ± 0.06%
Nalm-6; Nalm-6, 1 μM
  viability at 1 µM: 90.1 ± 0.09%
Nalm-6; Nalm-6, 3 μM
  viability at 3 µM: 84.7 ± 0.09%
Nalm-6; Nalm-6, 5 μM
  viability at 5 µM: 84.5 ± 0.05%
Nalm-6; Nalm-6, 10 μM
  viability at 10 µM: 72.9 ± 0.03%
Nalm-6; Nalm-6, 15 μM
  viability at 15 µM: 57.1 ± 0.02%
Nalm-6; Nalm-6, 20 μM
  viability at 20 µM: 52.7 ± 0.01%
Nalm-6; Nalm-6, 30 μM
  viability at 30 µM: 50.7 ± 0.03%
Nalm-6; Nalm-6, 50 μM
  viability at 50 µM: 39.7 ± 0.01%
Nalm-6; Nalm-6, 70 μM
  viability at 70 µM: 32.5 ± 0.05%
Nalm-6; Nalm-6, 100 μM
  viability at 100 µM: 32.2 ± 0.02%
Nalm-6; Nalm-6, 150 μM
  viability at 150 µM: 32.5 ± 0.01%
Nalm-6; Nalm-6, 200 μM
  viability at 200 µM: 29%
Reh; 0.3 μM
  viability at 0.3 µM: 97.6 ± 0.03%
Reh; 0.5 μM
  viability at 0.5 µM: 96.8 ± 0.03%
Reh; 1 μM
  viability at 1 µM: 96.4 ± 0.01%
Reh; 3 μM
  viability at 3 µM: 95.5 ± 0.02%
Reh; 5 μM
  viability at 5 µM: 94.5 ± 0.03%
Reh; 10 μM
  viability at 10 µM: 91.3 ± 0.05%
Reh; 15 μM
  viability at 15 µM: 82.4 ± 0.02%
Reh; 20 μM
  viability at 20 µM: 78.6 ± 0.02%
Reh; 30 μM
  viability at 30 µM: 70.9 ± 0.03%
Reh; 50 μM
  viability at 50 µM: 63.5 ± 0.04%
Reh; 70 μM
  viability at 70 µM: 62.9 ± 0.03%
Reh; 100 μM
  viability at 100 µM: 61.2 ± 0.01%
Reh; 150 μM
  viability at 150 µM: 60.3 ± 0.03%
Reh; 200 μM
  viability at 200 µM: 57 ± 0.02%
